Measurements reported in patent US12576074B2, “Kits and methods for induction of cardioversion in subjects with atrial arrhythmias” (InCarda Therapeutics, Inc., priority 2020, dated 2026).
Several values for one entry are separate records, joined by “and”; a condition that tells them apart may be missing. Equal entries are not always repeated. Where two headings read alike, the source gives them in different places.

Columns and labels:
[1] = cited from earlier work
IK1 = target: T1, IK1 (Homo sapiens, UniProt P63252); conditions: flecainide increases IK1; used to calculate Gk1; cited from earlier work
T1 sequence (P63252 1-427): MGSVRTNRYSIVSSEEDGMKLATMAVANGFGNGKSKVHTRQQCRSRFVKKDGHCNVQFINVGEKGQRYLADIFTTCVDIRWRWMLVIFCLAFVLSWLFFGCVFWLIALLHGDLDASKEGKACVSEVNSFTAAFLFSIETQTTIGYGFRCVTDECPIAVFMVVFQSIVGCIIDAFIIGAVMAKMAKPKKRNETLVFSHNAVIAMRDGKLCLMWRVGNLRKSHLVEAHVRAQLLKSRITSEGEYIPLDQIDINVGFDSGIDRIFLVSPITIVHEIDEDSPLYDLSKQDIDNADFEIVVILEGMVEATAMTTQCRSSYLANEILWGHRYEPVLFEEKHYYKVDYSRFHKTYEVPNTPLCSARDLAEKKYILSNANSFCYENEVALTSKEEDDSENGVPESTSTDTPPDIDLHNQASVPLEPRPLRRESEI

Sinclair swine [2] = assay: Electrocardiograms after IV infusion in swine
Description: After the animals were transferred to study, all animals were randomly assigned to treatment groups per the study design described below. This study was designed as a cross-over design with a minimum of 1-week washout between Treatment “A” and Treatment “B”. […] Electrocardiograms (EKGs) were performed prior to infusion and within 30 minutes of dose completion for both “A” and “B” treatments. Infusions were performed under sedation and anesthesia was maintained post-infusion for the duration of the blood collections. Blood was collected following TABLE 5 below: prior to infusion, halfway through infusion, and at 0, 2, 4, 6, 8, 10, 15, 30, 45, 60, and 120 minutes post-infusion completion for both treatment “A” and “B”.
Swine were sedated with target doses of 0.5 mg/kg of midazolam and 25 mg/kg of ketamine (actual doses ranging from […] and 24.83-25.33 mg/kg, respectively), with the exception of one animal which received half the target doses per veterinary instruction (0.26 mg/kg midazolam and 12.67 mg/kg ketamine). Animals were anesthetized with isoflurane (5% for induction, ˜0.5-3% for maintenance) via face mask inhalation for the duration of the infusion and blood collections. All anesthesia and monitoring of vital parameters were performed in accordance with ACL-2011.
All animals underwent an electrocardiogram (EKG) using the EMKA system. EKGs were collected prior to dosing (any time prior to each dose administration) and within 30 minutes completion of each infusion per TLE-2125, Physiological Data Collection for Large Animals Using the emkaPACK4g Acquisition System. ECG waveforms were quantitatively evaluated for heart rate (HR) and PR, QRS, and QT/QTc intervals using a validated ecgAUTO system (v3.5.5, emka TECHNOLOGIES, Paris, France). • QTcB (Bazett's)=QT/RR(1/2) • QTcF (Fridericia)=QT/RR(1/3) • QTcV (Van de Water)=QT−0.087 (RR−1000) Where RR=time between successive beats, measured in milliseconds.

[3] = system: paroxysmal atrial fibrillation; conditions: average population; cited from earlier work
[4] = target: cardiac voltage-gated sodium channels (Nav1.5 subtype), peak sodium current (Homo sapiens, UniProt Q14524); conditions: unbinding from bound sodium channels; cited from earlier work
[5] = target: ryanodine receptor RyR2 (IRyR) (Homo sapiens, UniProt Q92736); conditions: cited from earlier work
Ito = conditions: value used in O'Hara-Rudy model; cited from earlier work
[6] = system: canine left ventricular wedge preparations; assay: Canine left ventricular wedge preparation, repolarization/EAD sensitised (Series III); conditions: ibutilide 50 nM 40 min, then flecainide 1.5 μM 30 min added; 3 mM KCl
Description: Drugs were administered in the order and concentrations specified in TABLE 4.
Canine left ventricular (LV) wedge preparations were excised from the same hearts used to obtain the right atrial preparations.
Panel A: Control. […] The numbers appearing under M APs indicate APD90 values, and those on the ECG recordings indicate QT interval values.

Sinclair swine [7] = assay: Clinical observations and survival in swine; format: in vivo; conditions: two animals (one treatment A, one treatment B); deemed due to anesthesia
Source text: All animals survived to study completion. Animals underwent clinical observations continuously while the animals are under anesthesia during, pre- and post-dosing through to final blood collection per TXP-1532, Pharmacologic and Toxicological Observations of Experimental Animals, and twice daily per ACL-1974 Receipt, Quarantine and Husbandry of Swine. […] One of the animals in question was during the high-dose treatment (“B”) and was intubated and provided oxygen under the direction of veterinary staff. The other animal was during the low-dose treatment (“A”) and returned to breathing normally without need of additional support. Both of these abnormal events were deemed due to anesthesia.
All animals survived to study completion with no definitive test article clinical observations.

[8] = system: ACh-mediated AF in isolated arterially-perfused canine right atrium; assay: Termination of ACh-induced persistent AF in canine isolated coronary-perfused right atrial preparations (Series II); parameters: species or system canine (Beagles); conditions: flecainide 1.5 μM, ibutilide 20 nM, ACh 0.5 μM
Description: Experiments were performed using isolated arterially-perfused canine preparations consisting of right atrium with a rim of right ventricle. The hearts were from Beagles approximately 1 year of age and were stored in ice cold cardioplegic solution for approximately 40 minutes before experimentation.
During experiments, transmembrane action potential (AP) recordings (sampling rate 41 kHz) were obtained from the atrium and ventricle using floating glass microelectrodes (10-25 MΩ DC resistance). A pseudo-electrocardiogram (ECG) was recorded using two electrodes consisting of Ag/AgCl half cells placed in the Tyrode's solution, bathing the preparation, 1.0 to 1.2 cm from opposite ends of the atrial coronary-perfused preparations (FIG. 1). […] The diastolic threshold of excitation (DTE) was determined by increasing stimulus intensity in 0.01 mA steps starting from 0.1 mA, until a steady 1:1 activation was achieved. Post-repolarization refractoriness (PRR) was recognized when ERP exceeded APD90 in the ventricle and APD70 in atria. Ventricular ERP coincides with APD90, whereas atrial ERP generally coincides with APD70.
Ventricular electrical activity was monitored for the development of early afterdepolarizations (EADs) and torsade de pointes (TdP).
Stock solutions were made by dissolving test article dry powder in distilled water vehicle. […]

[9] = target: L-type calcium channels (ICaL), CaV1.2 channels (Homo sapiens, UniProt Q13936); conditions: cited from earlier work
[10] = Treatment A (flecainide 1 mg/kg, ibutilide 0.007 mg/kg or both, IV), individual animal
[11] = Treatment B (flecainide 2 mg/kg, ibutilide 0.014 mg/kg or both, IV), individual animal

Chain of L-type calcium channels (ICaL), CaV1.2 channels (Q13936 whole entry): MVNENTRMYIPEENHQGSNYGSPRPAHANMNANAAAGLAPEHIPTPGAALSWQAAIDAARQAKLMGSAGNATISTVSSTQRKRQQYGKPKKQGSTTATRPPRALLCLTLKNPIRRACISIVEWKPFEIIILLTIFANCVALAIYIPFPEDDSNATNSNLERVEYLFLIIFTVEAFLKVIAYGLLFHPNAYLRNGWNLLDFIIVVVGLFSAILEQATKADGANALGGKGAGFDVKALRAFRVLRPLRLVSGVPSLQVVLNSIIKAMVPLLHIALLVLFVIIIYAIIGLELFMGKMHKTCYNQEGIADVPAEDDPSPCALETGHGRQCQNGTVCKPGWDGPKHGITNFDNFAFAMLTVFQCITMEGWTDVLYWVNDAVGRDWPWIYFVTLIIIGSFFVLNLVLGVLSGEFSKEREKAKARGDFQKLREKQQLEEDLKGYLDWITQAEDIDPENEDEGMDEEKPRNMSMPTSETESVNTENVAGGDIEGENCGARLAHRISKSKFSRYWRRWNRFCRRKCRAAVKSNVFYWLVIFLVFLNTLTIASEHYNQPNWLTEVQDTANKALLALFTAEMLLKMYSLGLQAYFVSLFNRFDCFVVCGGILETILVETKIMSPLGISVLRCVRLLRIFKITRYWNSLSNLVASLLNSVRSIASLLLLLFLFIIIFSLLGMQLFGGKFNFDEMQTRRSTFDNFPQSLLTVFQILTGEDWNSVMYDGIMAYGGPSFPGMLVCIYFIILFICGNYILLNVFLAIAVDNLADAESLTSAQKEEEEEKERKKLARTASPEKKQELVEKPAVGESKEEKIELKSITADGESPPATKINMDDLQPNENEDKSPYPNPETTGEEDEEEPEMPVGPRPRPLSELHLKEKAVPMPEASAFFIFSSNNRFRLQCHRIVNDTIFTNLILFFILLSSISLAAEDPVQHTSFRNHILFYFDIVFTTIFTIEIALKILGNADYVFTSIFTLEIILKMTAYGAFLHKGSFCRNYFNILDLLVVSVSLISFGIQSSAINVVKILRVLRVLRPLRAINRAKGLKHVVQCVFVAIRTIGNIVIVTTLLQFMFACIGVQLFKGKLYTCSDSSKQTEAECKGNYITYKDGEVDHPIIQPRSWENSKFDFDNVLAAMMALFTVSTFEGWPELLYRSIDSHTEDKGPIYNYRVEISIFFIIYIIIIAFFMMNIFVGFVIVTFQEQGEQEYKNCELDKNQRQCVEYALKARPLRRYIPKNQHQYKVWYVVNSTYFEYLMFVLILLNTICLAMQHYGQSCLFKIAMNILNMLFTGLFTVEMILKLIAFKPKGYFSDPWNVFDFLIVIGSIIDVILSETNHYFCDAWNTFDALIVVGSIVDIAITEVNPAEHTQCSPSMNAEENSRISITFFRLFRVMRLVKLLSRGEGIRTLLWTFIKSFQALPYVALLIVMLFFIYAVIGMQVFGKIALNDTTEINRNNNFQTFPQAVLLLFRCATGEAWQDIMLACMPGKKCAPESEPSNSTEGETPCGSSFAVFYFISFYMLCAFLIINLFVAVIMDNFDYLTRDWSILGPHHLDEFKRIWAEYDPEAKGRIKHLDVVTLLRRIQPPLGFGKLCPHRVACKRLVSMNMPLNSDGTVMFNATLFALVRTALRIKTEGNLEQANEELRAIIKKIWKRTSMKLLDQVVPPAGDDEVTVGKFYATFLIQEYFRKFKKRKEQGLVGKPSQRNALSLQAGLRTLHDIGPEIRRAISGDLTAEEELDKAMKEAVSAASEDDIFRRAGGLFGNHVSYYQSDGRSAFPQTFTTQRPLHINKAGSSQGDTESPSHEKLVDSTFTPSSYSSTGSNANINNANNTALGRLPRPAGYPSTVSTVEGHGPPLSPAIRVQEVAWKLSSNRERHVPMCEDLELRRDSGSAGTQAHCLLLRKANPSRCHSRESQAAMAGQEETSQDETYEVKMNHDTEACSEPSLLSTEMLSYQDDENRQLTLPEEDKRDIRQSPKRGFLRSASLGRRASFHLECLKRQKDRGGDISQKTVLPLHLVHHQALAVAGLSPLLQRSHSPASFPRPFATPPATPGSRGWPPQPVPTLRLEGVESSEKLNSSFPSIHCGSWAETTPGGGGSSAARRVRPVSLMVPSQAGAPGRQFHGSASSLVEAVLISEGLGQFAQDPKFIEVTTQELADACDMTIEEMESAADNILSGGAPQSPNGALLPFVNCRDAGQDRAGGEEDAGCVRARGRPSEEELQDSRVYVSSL
Chain of L-type calcium channels (ICaL), CaV1.2 channels (Q08289 whole entry partner): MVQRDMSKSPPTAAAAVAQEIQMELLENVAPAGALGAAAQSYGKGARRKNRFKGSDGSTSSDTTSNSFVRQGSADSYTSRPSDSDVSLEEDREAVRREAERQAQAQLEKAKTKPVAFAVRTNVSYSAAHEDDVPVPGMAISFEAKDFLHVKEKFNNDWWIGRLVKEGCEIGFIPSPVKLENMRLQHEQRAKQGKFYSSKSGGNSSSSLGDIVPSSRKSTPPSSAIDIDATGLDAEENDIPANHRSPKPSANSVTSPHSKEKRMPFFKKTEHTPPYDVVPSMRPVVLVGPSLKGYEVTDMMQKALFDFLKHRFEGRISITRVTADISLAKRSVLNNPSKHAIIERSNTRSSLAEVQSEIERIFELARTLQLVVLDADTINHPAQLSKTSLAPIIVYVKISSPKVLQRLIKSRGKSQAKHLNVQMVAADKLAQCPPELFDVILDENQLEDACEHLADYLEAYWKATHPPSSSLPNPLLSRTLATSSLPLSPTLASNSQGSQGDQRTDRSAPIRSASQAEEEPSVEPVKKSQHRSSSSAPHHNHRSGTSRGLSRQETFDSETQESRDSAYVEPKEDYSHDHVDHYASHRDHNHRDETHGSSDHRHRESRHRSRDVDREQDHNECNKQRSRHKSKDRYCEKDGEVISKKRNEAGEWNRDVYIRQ
Chain of L-type calcium channels (ICaL), CaV1.2 channels (P54289 25-956 partner limits assumed): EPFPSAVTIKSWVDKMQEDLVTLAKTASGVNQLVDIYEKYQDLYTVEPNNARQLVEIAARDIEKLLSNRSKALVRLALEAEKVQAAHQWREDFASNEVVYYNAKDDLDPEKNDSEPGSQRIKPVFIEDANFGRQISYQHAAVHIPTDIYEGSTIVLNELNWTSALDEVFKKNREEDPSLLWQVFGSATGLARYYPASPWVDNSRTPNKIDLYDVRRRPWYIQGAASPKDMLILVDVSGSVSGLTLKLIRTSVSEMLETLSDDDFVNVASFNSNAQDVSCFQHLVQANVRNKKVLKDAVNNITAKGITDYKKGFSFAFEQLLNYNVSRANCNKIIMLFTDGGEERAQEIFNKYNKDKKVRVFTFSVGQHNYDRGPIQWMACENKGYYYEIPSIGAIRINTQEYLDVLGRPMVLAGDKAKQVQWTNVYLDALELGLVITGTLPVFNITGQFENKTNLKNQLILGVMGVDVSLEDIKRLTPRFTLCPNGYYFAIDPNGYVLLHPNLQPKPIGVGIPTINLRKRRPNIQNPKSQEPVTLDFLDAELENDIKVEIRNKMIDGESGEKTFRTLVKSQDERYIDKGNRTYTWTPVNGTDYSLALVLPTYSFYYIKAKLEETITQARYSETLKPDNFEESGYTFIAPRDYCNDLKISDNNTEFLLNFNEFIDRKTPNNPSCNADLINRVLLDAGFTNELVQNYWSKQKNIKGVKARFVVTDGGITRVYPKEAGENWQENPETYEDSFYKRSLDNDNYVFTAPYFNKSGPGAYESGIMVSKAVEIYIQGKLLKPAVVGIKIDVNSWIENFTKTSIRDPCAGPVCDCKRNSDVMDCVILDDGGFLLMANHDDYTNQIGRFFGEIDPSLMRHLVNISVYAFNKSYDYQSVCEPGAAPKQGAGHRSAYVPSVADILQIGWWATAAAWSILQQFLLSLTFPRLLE
Chain of L-type calcium channels (ICaL), CaV1.2 channels (P54289 957-1103 partner limits assumed): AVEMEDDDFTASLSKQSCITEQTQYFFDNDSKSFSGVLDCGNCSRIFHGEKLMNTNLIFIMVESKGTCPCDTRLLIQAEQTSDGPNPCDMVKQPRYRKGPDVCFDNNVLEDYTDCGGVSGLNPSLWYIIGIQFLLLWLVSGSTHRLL

| SMILES | Avg ATcV, baseline-normalized post-infusion (Sinclair swine [2]; [10]) | Avg HR, baseline-normalized post-infusion (Sinclair swine [2]; [10]) | Avg PR, baseline-normalized post-infusion (Sinclair swine [2]; [10]) | Avg QRS, baseline-normalized post-infusion (Sinclair swine [2]; [10]) | Avg QT, baseline-normalized post-infusion (Sinclair swine [2]; [10]) | Avg QTcB, baseline-normalized post-infusion (Sinclair swine [2]; [10]) | Avg QTcF, baseline-normalized post-infusion (Sinclair swine [2]; [10]) | Avg ATcV, baseline-normalized post-infusion (Sinclair swine [2]; Treatment A, group mean) [%] | Avg HR, baseline-normalized post-infusion (Sinclair swine [2]; Treatment A, group mean) [%] | Avg PR, baseline-normalized post-infusion (Sinclair swine [2]; Treatment A, group mean) [%] | Avg QRS, baseline-normalized post-infusion (Sinclair swine [2]; Treatment A, group mean) [%] | Avg QT, baseline-normalized post-infusion (Sinclair swine [2]; Treatment A, group mean) [%] | Avg QTcB, baseline-normalized post-infusion (Sinclair swine [2]; Treatment A, group mean) [%] | Avg QTcF, baseline-normalized post-infusion (Sinclair swine [2]; Treatment A, group mean) [%] | Avg ATcV, baseline-normalized post-infusion (Sinclair swine [2]; [11]) | Avg HR, baseline-normalized post-infusion (Sinclair swine [2]; [11]) | Avg PR, baseline-normalized post-infusion (Sinclair swine [2]; [11]) | Avg QRS, baseline-normalized post-infusion (Sinclair swine [2]; [11]) | Avg QT, baseline-normalized post-infusion (Sinclair swine [2]; [11]) | Avg QTcB, baseline-normalized post-infusion (Sinclair swine [2]; [11]) | further results |
| --- | --- | --- | --- | --- | --- | --- | --- | --- | --- | --- | --- | --- | --- | --- | --- | --- | --- | --- | --- | --- | --- |
| CCCCCCCCCCCCCCCC(=O)OC[C@H](COP(=O)([O-])OCC[N+](C)(C)C)OC(=O)CCCCCCCCCCCCCCC [DPPC, dipalmitoylphosphatidylcholine] | – | – | – | – | – | – | – | – | – | – | – | – | – | – | – | – | – | – | – | – | solubility in water [1]: about 10^−10 mol/L |
| O=C(NCC1CCCCN1)c1cc(OCC(F)(F)F)ccc1OCC(F)(F)F (stereo not drawn) [Flecainide, N-(piperidin-2-ylmethyl)-2,5-bis(2,2,2-trifluoroethoxy)benzamide] | −4.4% and −6.0% and −2.6% | −7.2% and −26.5% and −9.6% | 22.3% and 17.5% and 8.6% | 0.1% and −1.3% and 3.5% | −3.5% and −1.6% and −1.4% | −7.1% and −15.7% and −6.3% | −5.9% and −11.2% and −4.7% | −4.3 | −14.5 | 16.1 | 0.7 | −2.2 | −9.7 | −7.3 | 11.4% and −2.3% and −1.9% | 0.4% and −18.8% and −13.6% | 13.3% and 9.7% and 24.6% | 4.4% and 3.3% and 18.2% | 12.6% and 2.1% and 0.1% | 12.8% and −8.0% and −6.9% | EC50 (IK1): 0.4 µM; Avg QTcF, baseline-normalized post-infusion (Sinclair swine [2]; [11]): 12.7% and −4.7% and −4.6%; Avg ATcV, baseline-normalized post-infusion (Sinclair swine [2]; Treatment B, group mean): 2.4%; Avg HR, baseline-normalized post-infusion (Sinclair swine [2]; Treatment B, group mean): −10.7%; Avg PR, baseline-normalized post-infusion (Sinclair swine [2]; Treatment B, group mean): 15.8%; Avg QRS, baseline-normalized post-infusion (Sinclair swine [2]; Treatment B, group mean): 8.7%; Avg QT, baseline-normalized post-infusion (Sinclair swine [2]; Treatment B, group mean): 4.9%; Avg QTcB, baseline-normalized post-infusion (Sinclair swine [2]; Treatment B, group mean): −0.7%; Avg QTcF, baseline-normalized post-infusion (Sinclair swine [2]; Treatment B, group mean): 1.1%; patients with paroxysmal atrial fibrillation exhibiting resistance to monotherapy [3]: approximately 30%; unbinding time τoff [4]: ≈ 20.5 sec; IC50 ([5]; read-out: potency for inhibition of RyR2): ~20 µM; IC50 ([5]; value used in O'Hara-Rudy model, read-out: IC50 IRyR): 20 µM; IC50 (Ito): 15.2 µM |
| CCCCCCCN(CC)CCCC(O)c1ccc(NS(C)(=O)=O)cc1 (stereo not drawn) [Ibutilide, N-(4-(4-(ethyl(heptyl)amino)-1-hydroxybutyl)phenyl)methanesulfonamide] | 14.4% and 10.5% and 5.0% | −19.5% and −54.7% and −28.7% | 4.8% and 40.7% and 7.1% | 8.2% and 7.3% and 4.9% | 19.9% and 28.1% and 11.7% | 7.5% and −13.4% and −5.8% | 11.5% and −1.4% and −0.3% | 10.0 | −34.3 | 17.5 | 6.8 | 19.9 | −3.9 | 3.3 | 16.1% and 13.1% and 13.6% | −38.3% and −12.7% and −15.4% | 28.2% and 2.9% and 14.7% | 7.7% and 16.8% and 6.5% | 26.6% and 16.3% and 18.3% | −0.6% and 8.5% and 8.9% | effect on repolarization (QT interval, Tpeak-Tend) [6]: significantly prolonged repolarization; abnormal clinical observations (Sinclair swine [7]): stopped breathing under anesthesia; Avg QTcF, baseline-normalized post-infusion (Sinclair swine [2]; [11]): 7.8% and 11.0% and 11.9%; Avg ATcV, baseline-normalized post-infusion (Sinclair swine [2]; Treatment B, group mean): 14.3%; Avg HR, baseline-normalized post-infusion (Sinclair swine [2]; Treatment B, group mean): −22.1%; Avg PR, baseline-normalized post-infusion (Sinclair swine [2]; Treatment B, group mean): 15.3%; Avg QRS, baseline-normalized post-infusion (Sinclair swine [2]; Treatment B, group mean): 10.3%; Avg QT, baseline-normalized post-infusion (Sinclair swine [2]; Treatment B, group mean): 20.4%; Avg QTcB, baseline-normalized post-infusion (Sinclair swine [2]; Treatment B, group mean): 5.6%; Avg QTcF, baseline-normalized post-infusion (Sinclair swine [2]; Treatment B, group mean): 10.3%; QT/QTc (QTcV) change post-infusion (Sinclair swine [2]; treatments A/B): increased; termination of ACh-induced persistent AF (preparations terminated out of tested) [8]: 1 out of 3 |
| [Mg+2] [Mg^2+] | – | – | – | – | – | – | – | – | – | – | – | – | – | – | – | – | – | – | – | – | decrease in ICaL ([9]; ICaL stimulated by cAMP (beta-adrenergic agonists)): about 63%; decrease in ICaL ([9]; basal conditions): about 26% |
